Measurements published in ChEMBL document CHEMBL1201862, “PubChem BioAssay data set” (2004).
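96-well plates; 48 h exposure; 5 concentrations. Endpoints by linear interpolation between flanking doses. Not reached: highest tested concentration assigned. The concentration for 50% growth inhibition is given as GI50.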 The source made the active and inactive calls. Rule as the data show it: active = GI50 up to about 1.1 µM and inactive = higher.

What was measured:
Experiment in all cases: DTP human tumour cell line panel, 48 h
COLO 205 = tested on: COLO 205
NCI-H226 = tested on: NCI-H226
U-251 = tested on: U-251
KM12 = tested on: KM12
SF-295 = tested on: SF-295
OVCAR-8 = tested on: OVCAR-8
A549 = tested on: A549
K562 = tested on: K562
CCRF-CEM = tested on: CCRF-CEM
NCI-H23 = tested on: NCI-H23
RXF 393 = tested on: RXF 393
SK-MEL-2 = tested on: SK-MEL-2
RPMI-8226 = tested on: RPMI-8226
HCC 2998 = tested on: HCC 2998
SK-MEL-28 = tested on: SK-MEL-28
NCI-H460 = tested on: NCI-H460
HCT-116 = tested on: HCT-116
UACC-62 = tested on: UACC-62
MDA-N = tested on: MDA-N
DU-145 = tested on: DU-145

| SMILES | GI50 (COLO 205) | GI50 (NCI-H226) | GI50 (U-251) | GI50 (KM12) | GI50 (SF-295) | GI50 (OVCAR-8) | GI50 (A549) | GI50 (K562) | GI50 (CCRF-CEM) | GI50 (NCI-H23) | GI50 (RXF 393) | GI50 (SK-MEL-2) | GI50 (RPMI-8226) | GI50 (HCC 2998) | GI50 (SK-MEL-28) | GI50 (NCI-H460) | GI50 (HCT-116) | GI50 (UACC-62) | GI50 (MDA-N) | GI50 (DU-145) |
| --- | --- | --- | --- | --- | --- | --- | --- | --- | --- | --- | --- | --- | --- | --- | --- | --- | --- | --- | --- | --- |
| COC(=O)C(NC(=O)c1ccccc1)C(c1ccc(Cl)cc1)P(=O)(OC)OC (stereo not drawn) | > 100 µM (inactive) | > 100 µM (inactive) | > 100 µM (inactive) | > 100 µM (inactive) | 97.5 µM (inactive) | > 100 µM (inactive) | > 100 µM (inactive) | > 100 µM (inactive) | > 100 µM (inactive) | 91.4 µM (inactive) | 33.9 µM (inactive) | > 100 µM (inactive) | > 100 µM (inactive) | > 100 µM (inactive) | > 100 µM (inactive) | > 100 µM (inactive) | > 100 µM (inactive) | > 100 µM (inactive) | – | – |
| Cc1ccc2nc3c(C(=O)NCCN(C)C)cccc3cc2c1 | 1.02 µM (active) | 1.45 µM (inactive) | 3.26 µM (inactive) | 2.9 µM (inactive) | 1.95 µM (inactive) | 1.5 µM (inactive) | 1.33 µM (inactive) | 2.36 µM (inactive) | 1.55 µM (inactive) | 1.84 µM (inactive) | 2.02 µM (inactive) | 2.36 µM (inactive) | 1.58 µM (inactive) | 3.8 µM (inactive) | 2.51 µM (inactive) | 0.438 µM (active) | 0.807 µM (active) | 2.35 µM (inactive) | – | – |
| CC(=O)O[C@H]1CC[C@H]2[C@@H]3CC[C@H]4Nc5c(cnn5S(C)(=O)=O)C[C@]4(C)[C@H]3CC[C@]12C | > 100 µM (inactive) | 53.5 µM (inactive) | 53.1 µM (inactive) | > 100 µM (inactive) | 46.8 µM (inactive) | 45.4 µM (inactive) | – | 62.7 µM (inactive) | 7.94 µM (inactive) | > 100 µM (inactive) | > 100 µM (inactive) | 61.7 µM (inactive) | > 100 µM (inactive) | 56.4 µM (inactive) | 48.2 µM (inactive) | 68.2 µM (inactive) | 46.8 µM (inactive) | 33.7 µM (inactive) | > 100 µM (inactive) | > 100 µM (inactive) |
| COC(=O)C(Cc1cn(C(C)=O)c2ccccc12)P(=O)(OC)OC (stereo not drawn) | > 100 µM (inactive) | > 100 µM (inactive) | > 100 µM (inactive) | > 100 µM (inactive) | > 100 µM (inactive) | > 100 µM (inactive) | > 100 µM (inactive) | > 100 µM (inactive) | > 100 µM (inactive) | > 100 µM (inactive) | > 100 µM (inactive) | – | > 100 µM (inactive) | > 100 µM (inactive) | > 100 µM (inactive) | > 100 µM (inactive) | > 100 µM (inactive) | > 100 µM (inactive) | > 100 µM (inactive) | > 100 µM (inactive) |
| COc1cc2c(cc1OC)C(=O)/C(=C/c1cc(OC)c(OC)c(OC)c1)C2 | > 100 µM (inactive) | > 100 µM (inactive) | > 100 µM (inactive) | > 100 µM (inactive) | > 100 µM (inactive) | > 100 µM (inactive) | – | > 100 µM (inactive) | > 100 µM (inactive) | > 100 µM (inactive) | > 100 µM (inactive) | > 100 µM (inactive) | > 100 µM (inactive) | – | > 100 µM (inactive) | > 100 µM (inactive) | – | > 100 µM (inactive) | > 100 µM (inactive) | > 100 µM (inactive) |
| O=C1CN2C(Cl)(Cl)C2(c2ccccc2)c2cc(Cl)ccc2N1CC(F)(F)F (stereo not drawn) | 19.5 µM (inactive) | 26.2 µM (inactive) | 18.8 µM (inactive) | 19.6 µM (inactive) | 18.5 µM (inactive) | 33.4 µM (inactive) | – | 27.8 µM (inactive) | 18.7 µM (inactive) | 26.2 µM (inactive) | 21.9 µM (inactive) | 24 µM (inactive) | 32.4 µM (inactive) | 16.6 µM (inactive) | 22.6 µM (inactive) | 16.1 µM (inactive) | 21.6 µM (inactive) | 56.1 µM (inactive) | – | – |
